Experimental data as given in patent US10611750B2, “Tetrahydroquinoline compositions as bet bromodomain inhibitors” (FORMA Therapeutics, Inc., priority 2013, dated 2020).

Columns and labels:
[1] = target: T1, BRD4 Bromodomain 1 (BRD4 BD1) (Homo sapiens, UniProt O60885); assay: AlphaScreen binding assay, BRD4 BD1; details: His-tagged BRD4 BD1 50 nM, biotinylated H4 (1-21) K5/8/12/16 tetra-acetylated peptide 50 nM, compounds listed under IC50 range headings
T1 construct: 44-168 and BRD4 BD2
In short: (§1)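 An AlphaScreen competition format was used with His-BRD4 BD1 or BD2 and biotin-H4 K5/8/12/16-acetyl peptide, each at matched final levels of 50 nM (BD1) or 100 nM (BD2). Incubation in HEPES/NaCl buffer with 0.1% BSA and 0.01% Triton X-100 ran ≥1 h before IC50 determination.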

[2] = target: T2, BRD4 Bromodomain 2 (BRD4 BD2) (Homo sapiens, UniProt O60885); assay: AlphaScreen binding assay, BRD4 BD2; details: His-tagged BRD4 BD2 100 nM, biotinylated H4 (1-21) K5/8/12/16 tetra-acetylated peptide 100 nM, compounds listed under IC50 range headings
T2 construct: 333-460 were cloned, expressed, and purified to homogeneity
In short: as §1

[3] = test system: acute myelocytic leukemia (AML) cell line MV4-11; assay: Oncology cell growth assay (3-day proliferation, CellTiter-Glo); assay type: cell-based; details: Homo sapiens, MV4-11, 72 h, MV4-11 cells, 3000 cells/well, compounds listed under IC50 range headings, read-out: MV411 IC50 (gIC50, inhibition of proliferation)
In short: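 A 3-day proliferation test used MV4-11 cells seeded at 3000 per well with eight compound concentrations (10 μM top, 3-fold dilution) at 37° C in 5% CO2. CellTiter-Glo luminescence defined viable cell signal. A four-parameter logistic curve against DMSO and background wells gave the gIC50.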

SMILES | IC50 [1] [nM] | IC50 [2] [nM] | IC50 [3] [nM]
COC(=O)N1c2ccc(-c3cnn(C4CCNC4)c3)c(OC3CCC3)c2CC[C@@H]1C (stereo partly drawn) [I-108, (2S)-methyl 5-cyclobutoxy-2-methyl-6-(1-(pyrrolidin-3-yl)-1H-pyrazol-4-yl)-3,4-dihydroquinoline-1(2H)-carboxylate] | 100 to 1000 | < 50 | < 500
CC(=O)N1c2ccc(-c3cnn(C4CC4)c3)c(OC3CC3)c2CC[C@@H]1C [I-113, (S)-1-(5-cyclopropoxy-6-(1-cyclopropyl-1H-pyrazol-4-yl)-2-methyl-3,4-dihydroquinolin-1(2H)-yl)ethanone] | 100 to 1000 | 50 to 500 | < 500
CCCOc1c(-c2ccc(S(C)(=O)=O)cn2)ccc2c1CC[C@H](C)N2C(C)=O [I-114, (S)-1-(2-methyl-6-(5-(methylsulfonyl)pyridin-2-yl)-5-propoxy-3,4-dihydroquinolin-1(2H)-yl)ethanone] | 1000 to 10000 | 50 to 500 | > 1000
CCCOc1c(-c2ccc(NS(C)(=O)=O)cn2)ccc2c1CC[C@H](C)N2C(C)=O [I-115, (S)—N-(6-(1-acetyl-2-methyl-5-propoxy-1,2,3,4-tetrahydroquinolin-6-yl)pyridin-3-yl)methanesulfonamide] | 1000 to 10000 | 50 to 500 | > 1000
CC(=O)N1c2ccc(-c3ccc(S(C)(=O)=O)cn3)c(OCC(=O)N(C)C)c2CC[C@@H]1C [I-116, (S)-2-(1-acetyl-2-methyl-6-(5-(methylsulfonyl)pyridin-2-yl)-1,2,3,4-tetrahydroquinolin-5-yloxy)-N,N-dimethylacetamide] | ≥ 10000 | 50 to 500 | > 1000
CCCOc1c(-c2nc3ccccc3o2)ccc2c1CC[C@H](C)N2C(C)=O [I-117, (S)-1-(6-(benzo[d]oxazol-2-yl)-2-methyl-5-propoxy-3,4-dihydroquinolin-1(2H)-yl)ethanone] | 1000 to 10000 | 50 to 500 | > 1000
CCCOc1c(-c2cc3ccccn3n2)ccc2c1CC[C@H](C)N2C(C)=O [I-118, (S)-1-(2-methyl-5-propoxy-6-(pyrazolo[1,5-a]pyridin-2-yl)-3,4-dihydroquinolin-1(2H)-yl)ethanone] | 1000 to 10000 | ≥ 500 | > 1000
CCCOc1c(-c2cn3ccccc3n2)ccc2c1CC[C@H](C)N2C(C)=O [I-119, (S)-1-(6-(imidazo[1,2-a]pyridin-2-yl)-2-methyl-5-propoxy-3,4-dihydroquinolin-1(2H)-yl)ethanone] | 1000 to 10000 | 50 to 500 | 500 to 1000
CCCOc1c(-c2nc3ccccc3s2)ccc2c1CC[C@H](C)N2C(C)=O [I-120, (S)-1-(6-(benzo[d]thiazol-2-yl)-2-methyl-5-propoxy-3,4-dihydroquinolin-1(2H)-yl)ethanone] | 1000 to 10000 | ≥ 500 | > 1000
CCCOc1c(-c2nc3ccccc3[nH]2)ccc2c1CC[C@H](C)N2C(C)=O [I-121, (S)-1-(6-(1H-benzo[d]imidazol-2-yl)-2-methyl-5-propoxy-3,4-dihydroquinolin-1(2H)-yl)ethanone] | 1000 to 10000 | 50 to 500 | 500 to 1000
COC(=O)N1c2ccc(-c3cnn(C4CCNCC4)c3)c(Oc3ccc(Cl)cc3C#N)c2CC[C@@H]1C [I-132, (S)-methyl 5-(4-chloro-2-cyanophenoxy)-2-methyl-6-(1-(piperidin-4-yl)-1H-pyrazol-4-yl)-3,4-dihydroquinoline-1(2H)-carboxylate] | 100 to 1000 | < 50 | < 500
COC(=O)N1c2ccc(-c3cnn(C4CCNCC4)c3)c(Oc3ccc(F)cc3C#N)c2CC[C@@H]1C [I-133, (S)-methyl 5-(2-cyano-4-fluorophenoxy)-2-methyl-6-(1-(piperidin-4-yl)-1H-pyrazol-4-yl)-3,4-dihydroquinoline-1(2H)-carboxylate] | 100 to 1000 | < 50 | < 500
COC(=O)N1c2ccc(-c3cnn(C4CCNCC4)c3)c(Oc3ccc(C#N)cc3Cl)c2CC[C@@H]1C [I-134, (S)-methyl 5-(2-chloro-4-cyanophenoxy)-2-methyl-6-(1-(piperidin-4-yl)-1H-pyrazol-4-yl)-3,4-dihydroquinoline-1(2H)-carboxylate] | 100 to 1000 | < 50 | < 500
COC(=O)N1c2ccc(-c3cnn(C4CCNCC4)c3)c(Oc3ccc(C#N)cc3F)c2CC[C@@H]1C [I-135, (S)-methyl 5-(4-cyano-2-fluorophenoxy)-2-methyl-6-(1-(piperidin-4-yl)-1H-pyrazol-4-yl)-3,4-dihydroquinoline-1(2H)-carboxylate] | 100 to 1000 | < 50 | < 500

Continued, values first:

IC50 [1] [nM] | IC50 [2] [nM] | IC50 [3] [nM] | SMILES
100 to 1000 | < 50 | < 500 | CC(=O)N1c2ccc(-c3cnn(C4CCNCC4)c3)c(Oc3ccccc3C#N)c2CC[C@@H]1C [I-136, (S)-2-(1-acetyl-2-methyl-6-(1-(piperidin-4-yl)-1H-pyrazol-4-yl)-1,2,3,4-tetrahydroquinolin-5-yloxy)benzonitrile]
100 to 1000 | < 50 | < 500 | COC(=O)N1c2ccc(-c3cnn(C4CCNCC4)c3)c(Oc3ccccc3C#N)c2CC[C@@H]1C [I-137, methyl (S)-5-(2-cyanophenoxy)-2-methyl-6-(1-(piperidin-4-yl)-1H-pyrazol-4-yl)-3,4-dihydroquinoline-1(2H)-carboxylate]
100 to 1000 | < 50 | < 500 | COC(=O)N1c2ccc(-c3cnn(C4CNC4)c3)c(Oc3ccccc3C#N)c2CC[C@@H]1C [I-138, (S)-methyl 6-(1-(azetidin-3-yl)-1H-pyrazol-4-yl)-5-(2-cyanophenoxy)-2-methyl-3,4-dihydroquinoline-1(2H)-carboxylate]
100 to 1000 | < 50 | < 500 | COC(=O)N1c2ccc(-c3cnn(C4CNC4)c3)c(Oc3cccc(F)c3C#N)c2CC[C@@H]1C [I-139, (S)-methyl 6-(1-(azetidin-3-yl)-1H-pyrazol-4-yl)-5-(2-cyano-3-fluorophenoxy)-2-methyl-3,4-dihydroquinoline-1(2H)-carboxylate]
100 to 1000 | < 50 | < 500 | CC(=O)N1c2ccc(-c3cnn(C4CCNCC4)c3)c(Oc3ccc(C#N)cc3)c2CC[C@@H]1C [I-140, (S)-4-(1-acetyl-2-methyl-6-(1-(piperidin-4-yl)-1H-pyrazol-4-yl)-1,2,3,4-tetrahydroquinolin-5-yloxy)benzonitrile]
100 to 1000 | < 50 | < 500 | CC(=O)N1c2ccc(-c3cnn(C4CCNCC4)c3)c(Oc3ncccc3C(F)(F)F)c2CC[C@@H]1C [I-141, (S)-1-(2-methyl-6-(1-(piperidin-4-yl)-1H-pyrazol-4-yl)-5-(3-(trifluoromethyl)pyridin-2-yloxy)-3,4-dihydroquinolin-1(2H)-yl)ethanone]
100 to 1000 | 50 to 500 | < 500 | CC(=O)N1c2ccc(-c3cnn(C4CCNCC4)c3)c(Oc3ncccc3Cl)c2CC[C@@H]1C [I-142, (S)-1-(5-(3-chloropyridin-2-yloxy)-2-methyl-6-(1-(piperidin-4-yl)-1H-pyrazol-4-yl)-3,4-dihydroquinolin-1 (2H)-yl)ethanone]
100 to 1000 | 50 to 500 | < 500 | CC(=O)N1c2ccc(-c3cnn(C4CCNCC4)c3)c(Oc3ncccc3C#N)c2CC[C@@H]1C [I-143, (S)-2-(1-acetyl-2-methyl-6-(1-(piperidin-4-yl)-1H-pyrazol-4-yl)-1,2,3,4-tetrahydroquinolin-5-yloxy)nicotinonitrile]
100 to 1000 | < 50 | < 500 | CC(=O)N1c2ccc(-c3cnn(C4CCNCC4)c3)c(Oc3ncc(C)cn3)c2CC[C@@H]1C [I-144, (S)-1-(2-methyl-5-(5-methylpyrimidin-2-yloxy)-6-(1-(piperidin-4-yl)-1H-pyrazol-4-yl)-3,4-dihydroquinolin-1 (2H)-yl)ethanone]
100 to 1000 | < 50 | < 500 | CC(=O)N1c2ccc(-c3cnn(C4CCNCC4)c3)c(Oc3cnccn3)c2CC[C@@H]1C [I-145, (S)-1-(2-methyl-6-(1-(piperidin-4-yl)-1H-pyrazol-4-yl)-5-(pyrazin-2-yloxy)-3,4-dihydroquinolin-1(2H)-yl)ethanone]
100 to 1000 | 50 to 500 | < 500 | COC(=O)N1c2ccc(-c3cnn(C4CCNCC4)c3)c(Oc3ccc(C#N)cc3)c2CC[C@@H]1C [I-146, (S)-methyl 5-(4-cyanophenoxy)-2-methyl-6-(1-(piperidin-4-yl)-1H-pyrazol-4-yl)-3,4-dihydroquinoline-1(2H)-carboxylate]
1000 to 10000 | 50 to 500 | < 500 | COC(=O)N1c2ccc(-c3cnn(C4CCNCC4)c3)c(Oc3ncccc3C#N)c2CC[C@@H]1C [I-147, (S)-methyl 5-(3-cyanopyridin-2-yloxy)-2-methyl-6-(1-(piperidin-4-yl)-1H-pyrazol-4-yl)-3,4-dihydroquinoline-1(2H)-carboxylate]
